Measurements reported in publication PMC5424110, “Preclinical anti-arthritic study and pharmacokinetic properties of a potent histone deacetylase inhibitor MPT0G009” (Cell Death & Disease, 2014).
“Also recorded” adds a separate entry of the source. Read-outs that look alike come from different tables or passages of the source.

Key:
p21 in RA-FLS = assay: p21 expression in RA-FLS by flow cytometry
Protocol: After three washes with FACS washing buffer, the fluorescence of the cells was analyzed on a FACScan flow cytometer (BD Biosciences). […] They were then incubated for 30 min at room temperature with 0.2 ml of DNA extraction buffer (0.2 M Na2HPO4 and 0.1 M citric acid buffer, pH 7.8), resuspended in 1 ml of propidium iodide staining buffer (0.1% Triton X-100, 100 μg/ml of RNase A and 80 μg/ml of propidium iodide in PBS), incubated at 37 °C for 30 min in the dark, sorted by FACScan, and analyzed using CellQuest software (BD Biosciences).

[1] = test system: CD51/61 on RAW264.7 cells; assay: Osteoclast-specific marker CD51/61 by flow cytometry; conditions: RAW264.7, M-CSF/RANKL; 5 nM MPT0G009 or 50 nM SAHA
Protocol: Subsequently, multinucleate tartrate-resistant acid phosphatase (TRAP)-positive cells were counted.
Cells were then TRAP stained, and the numbers of TRAP-positive multinuclear cells were counted. […] Images are at × 100 magnification, and the arrows indicate differentiated osteoclasts.
Cells were then TRAP stained, and the numbers of TRAP-positive multinuclear cells were counted (d) or were incubated with a FITC-conjugated anti-CD51/61 antibody and analyzed by flow cytometry (e).
After three washes with FACS washing buffer, the fluorescence of the cells was analyzed on a FACScan flow cytometer (BD Biosciences).

[2] = test system: RA fibroblast-like synoviocyte (RA-FLS); assay: Inflammatory mediator production by stimulated RA-FLS; format: cell-based, human; conditions: MPT0G009 0.1, 1 or 10 μM, SAHA 0.3, 3 or 30 μM
Protocol: (§1) (a) Structure of MPT0G009.
(§2) These supernatants were then assayed for prostaglandin E2 (PGE2), NO and IL-6.

[3] = test system: histone H3 acetylation and HDAC3 in RA-FLS; assay: Western blot of acetyl histone H3 and HDAC isoforms, RA-FLS; format: cell-based, human
Protocol: Then, cells were harvested and cell lysates were prepared for western blot analysis of the indicated proteins. (c) RA-FLSs were incubated for 1 h with or without the proteasome inhibitor, MG132 (1 μM). […] Results shown are representative of three independent experiments.

rat AIA model = assay: In vivo adjuvant-induced arthritis (AIA) model; conditions: day 21, ELISA, MPT0G009 25 mg/kg, SAHA 200 mg/kg, indomethacin 1 mg/kg
Protocol: Next, we evaluated the in vivo anti-arthritic effects of MPT0G009 in a rat AIA model. […] The inhibition of synoviocytes proliferation and inflammation by MPT0G009 treatment was also observed (Supplementary Figure 1).
Figure 5 MPT0G009 inhibits the development of arthritis in an AIA model. […] Subsequently, swelling of both hind paws was photographed. (b) Hind paw volumes in the indicated group of rats were measured using a digital plethysmometer on the indicated day after AIA induction. (c) Arthritis scores on day 21. (d) Serum levels of interleukin (IL)-1β (left panel) and IL-6 (right panel) on day 21 as measured by enzyme-linked immunosorbent assay (ELISA). (e) Top five rows: photomicrographs of ankle joint sections from the different groups stained with hematoxylin and eosin, safranin O, immunohistochemically stained with an anti-acetyl H3 antibody or TRAP stain. Arrows indicate osteoblasts (OB); arrowheads indicate osteoclasts (OC). Bottom panels: micro-CT results (arrows indicate bone erosion). (f) The BMD (in mg/mm^3) and the BMC (in mg) values for the bone tissue of the tarsus were analyzed using CT Analysis Software.
Five-week-old male Lewis rats were obtained from the National Laboratory Animal Center (Taipei, Taiwan). Complete Freund's adjuvant (CFA) was prepared by suspending heat-killed Mycobacterium butyricum (Difco, Sparks, MD, USA) in mineral oil at 3 mg/ml. CFA-induced arthritis was induced by intradermal injection of 100 μl of the CFA emulsion into the base of the right hind paw on day 0. […] On days 0, 2, 6, 9, 13, 17 and 21, the animals were weighed and both hind paw volumes measured using a digital plethysmometer (Diagnostic & Research Instruments Co. Ltd, Taipei, Taiwan). On day 21, micro-CT of the paws was performed by the Core Facilities Center of the National Research Program for Biopharmaceuticals using an in vivo micro-CT scanner (Skyscan 1176, Bruker Corp., Kontich, Belgium) at 18 μm resolution and 180° scanning with a rotation step of 0.8° per image, 300 ms integration time, 70 keV photon energy and 350 μA current. The reconstructed volumes from micro-CT scans were analyzed by CT Analysis Software (CTAn, Bruker Corp.). Quantification of volumetric BMD and bone volume (BV) was performed in a defined bone area ranging 12 mm from tarsals to the end of the calcaneus. The BMC was described by the product of BV and BMD. On day 21, the rats were killed and specimens from the phalanges and ankle joints stained with hematoxylin–eosin or safranin O for histopathological assessment by the National Laboratory Animal Center. Intensity of arthritis was scored as described previously from 0 to 4.[19] All four legs were scored, so the highest possible arthritic score was 16.

[4] = set-up: method as in PMID 17473456; conditions: rat, cited from earlier work
RA-FLS [5] = assay: Cell proliferation assay (SRB), RA-FLS; format: cell-based, human; conditions: 24 or 48 h
RAW264.7 cells = assay: Inflammatory mediator production by LPS-stimulated RAW264.7 cells; format: cell-based, mouse; conditions: RAW264.7, LPS 25 ng/ml 24 h; MPT0G009 0.1, 1 or 10 μM; SAHA 0.3, 3 or 30 μM
Protocol: as §1, §2

RAW264.7 macrophages = assay: Osteoclast differentiation assay (TRAP stain), M-CSF/RANKL-induced; format: cell-based, mouse; conditions: RAW264.7, M-CSF/RANKL 50 ng/ml 5 days; 5 nM MPT0G009 or 50 nM SAHA
Protocol: Osteoclast formation was measured by quantifying cells stained for the osteoclast marker TRAP using an acid phosphatase kit (387-A; Sigma-Aldrich). Briefly, the specimens were fixed for 30 s in fixative solution (25.5% citrate solution, 66.3% acetone, 8.2% of 37% formaldehyde), then incubated for 1 h at 37 °C with a mixture of the provided naphthol AS-BI phosphate and tartrate solutions, followed by counterstaining with hematoxylin solution. Osteoclasts were counted as TRAP-positive multinuclear (>3 nuclei) cells using light microscopy. The morphological features of osteoclasts were also photographed.

RA-FLS [6] = assay: Cell cycle distribution by propidium iodide flow cytometry; format: cell-based, human; conditions: RA-FLS 24 h, MPT0G009 1–1000 nM, SAHA 3–3000 nM
[7] = test system: histone H3 acetylation in HIG-82 synoviocytes; assay: Western blot of acetyl histone H3, HIG-82 cells; format: cell-based, rabbit; conditions: 3 μM MPT0G009 or 60 μM SAHA, 6, 12 or 24 h, starting at 6 h
HIG-82 synoviocytes = assay: Cell proliferation assay (SRB), HIG-82 synoviocytes; format: cell-based, rabbit; conditions: 24 or 48 h

Compound: O=C(CCCCCCC(=O)Nc1ccccc1)NO [SAHA, suberoylanilide hydroxamic acid, reference compound]
- expression of p21 (p21 in RA-FLS; RA-FLS 24 h, 1 μM MPT0G009 or 3 μM SAHA, flow cytometry or western blot): significantly increased
- p21 (flow cytometry) (p21 in RA-FLS; RA-FLS, 3 μM, 24 h, Figure 1h): 96.42%
- expression of the osteoclast-specific marker (CD51/61) [1]: had no effect
- IL-6 production ([2]; IL-1β 10 ng/ml 24 h): inhibited
- PGE2 production ([2]; LPS 25 ng/ml 24 h): inhibited
- acetylation of histone H3 (Acetyl-H3) ([3]; 1 μM MPT0G009 or 30 μM SAHA, 6, 12 or 24 h, starting at 12 h): had a similar effect
- levels of HDAC3 ([3]; 12 or 24 h, 1 μM MPT0G009 or 30 μM SAHA): had no effect
- serum levels of IL-1β (rat AIA model): significant decreases
- serum levels of IL-6 (rat AIA model): significant decreases
- AUC(0-inf) ([4]; i.v. 2 mg/kg): 278 ng·h/mL
- CL ([4]; i.v. 2 mg/kg): 134 mL/min/kg
- T1/2 ([4]; i.v. 2 mg/kg): 38.4 min
- Vd ([4]; i.v. 2 mg/kg): 3.92 L/kg
- AUC(0-inf) ([4]; p.o. 5 mg/kg): 49.40 ng·h/mL
- Cmax ([4]; p.o. 5 mg/kg): 83.90 ng/mL
- F (oral bioavailability) ([4]; p.o. 5 mg/kg): 6.9%
- T1/2 ([4]; p.o. 5 mg/kg): 67.8 min
- Tmax ([4]; p.o. 5 mg/kg): 10.2 min
- anti-proliferative effect (RA-FLS [5]): concentration-dependent anti-proliferative effects
- NO production (RAW264.7 cells): inhibited
- PGE2 production (RAW264.7 cells): inhibited
- formation of M-CSF/RANKL-induced TRAP-positive cells (RAW264.7 macrophages): had no effect; also recorded: had little effect
- subG1 peak (cellular apoptosis) (RA-FLS [6]): did not increase the subG1 peak
- cell cycle arrest (RA-FLS [6]; all concentrations): G0/G1 phase arrest
- acetylation of histone H3 (Acetyl-H3) [7]: had a similar effect
- anti-proliferative effect (HIG-82 synoviocytes): concentration-dependent anti-proliferative effects

Compound: COc1ccc2c(c1)c(CC(=O)O)c(C)n2C(=O)c1ccc(Cl)cc1 [indomethacin, reference compound]
- serum levels of IL-1β (rat AIA model): significant decreases
- serum levels of IL-6 (rat AIA model): significant decreases
